We go through 1 molecule from US20240408082A1, “METHODS FOR TREATING CANCERS AND TUMORS” (BEYONDSPRING PHARMACEUTICALS, INC., priority 2021, published 2024).

One experiment relates to BXF 2211. The experiment can be described thus: 3D clonogenic assay, Example 1, BXF 2211. The format is cell-based. Conditions: model BXF 2211. Here is the method:
(§1) In the present study, plinabulin was characterized for its ability to inhibit anchorage independent growth and ex vivo colony formation of tumor cells in semi-solid medium. The compound was investigated in 87 out of 93 originally planned tumor xenografts representing all major cancer types using a 3D clonogenic assay in a 96-well format with colony count based on image analysis as read-out. By using this assay, the investigational compound was assessed for the ability to inhibit anchorage independent growth and ex vivo colony formation of tumor cells in semi-solid medium.
(§2) A master stock solution of plinabulin was prepared by dissolving the compound in DMSO at a concentration of 9.9 mM. Working stock solutions were prepared by diluting the master stock solution with DMSO to a concentration of 0.99 mM (330-fold the highest test concentration). Small aliquots of the master and working stock were stored at −20° C. […]
(§3) Plinabulin was investigated in 87 PDX models representing a number of cancer types. […] The percentage of viable cells was determined in a Neubauer-hemocytometer using trypan blue exclusion. […]
(§4) The clonogenic assay was carried out in a 96 well plate format using ultra low attachment plates. […] Cultures were incubated at 37° C. and 7.5% CO2 in a humidified atmosphere 13 days in total and monitored closely for colony growth using an inverted microscope. […]

Another experiment has as its system melanoma models. The experiment can be described thus: 3D clonogenic assay, Example 1, melanoma models. It is filed as cell-based. Conditions: n=19 models. Here is the method: as §1, §2, §3, §4

With `CC(C)(C)c1[nH]cnc1/C=c1\[nH]c(=O)/c(=C/c2ccccc2)[nH]c1=O` [plinabulin, (3Z,6Z)-3-Benzylidene-6-{[5-(2-methyl-2-propanyl)-1H-imidazol-4-yl]methylene}-2,5-piperazinedione], the “absolute IC70” value in the experiment with BXF 2211 came to 0.003 µM. Besides, in the experiment on melanoma models, the “geometric mean absolute IC70” value came to 1.105 µM.
